Measurements taken from ChEMBL document CHEMBL1201862, “PubChem BioAssay data set” (2004).
The source made the active and inactive calls.

Columns and labels:
[1] = OVCAR8 cell viability loss – plate reader, dry powder samples, PAX8 project, dose response (AID 743197); assay type: functional, cell-based; settings: OVCAR-8
[2] = biological target: Paired box protein Pax-8 (Homo sapiens, UniProt Q06710); experiment: PAX8 transcriptional activity inhibition in RMG-I – RMG-I cells, luciferase, cherry-pick, dose response (AID 687027); assay type: functional, cell-based;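 note: luciferase reporter driven by Pax8 target thyroperoxidase promoter measured by SteadyGlo luminescence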
[3] = biological target: T1, Long-chain-fatty-acid--AMP ligase FadD28 (Mycobacterium tuberculosis, UniProt P9WQ59); experiment: Fluorescence polarization aasay to screen for inhibitors that compete for the binding of FadD28 to a bisubstrate Measured in Biochemical System Using Plate Reader - 2147-01_Inhibitor_Dose_CherryPick_Activity.; assay type: functional, Mycobacterium tuberculosis H37Rv
T1 sequence (P9WQ59 whole entry): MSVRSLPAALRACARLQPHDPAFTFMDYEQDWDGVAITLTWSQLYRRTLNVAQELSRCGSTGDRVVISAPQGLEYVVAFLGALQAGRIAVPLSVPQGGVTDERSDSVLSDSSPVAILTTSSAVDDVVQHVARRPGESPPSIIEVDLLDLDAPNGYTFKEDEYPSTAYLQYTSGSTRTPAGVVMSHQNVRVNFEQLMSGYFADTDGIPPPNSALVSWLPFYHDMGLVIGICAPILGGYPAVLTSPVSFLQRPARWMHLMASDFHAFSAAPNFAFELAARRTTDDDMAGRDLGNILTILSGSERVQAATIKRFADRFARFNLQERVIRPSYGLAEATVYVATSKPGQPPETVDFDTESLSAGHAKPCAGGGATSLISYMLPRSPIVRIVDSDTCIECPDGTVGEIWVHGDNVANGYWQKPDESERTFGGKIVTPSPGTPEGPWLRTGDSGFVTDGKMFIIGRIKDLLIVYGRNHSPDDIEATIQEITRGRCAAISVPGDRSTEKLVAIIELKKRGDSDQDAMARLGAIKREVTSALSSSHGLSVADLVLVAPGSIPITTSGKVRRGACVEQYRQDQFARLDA

[4] = Counterscreen for inhibitors of Trypanosoma brucei methionyl tRNA synthetase (MetRS): Luminescence-based cell-based high throughput dose response assay to identify compounds that are cytotoxic to Jurkat human T lymphocyte cells.; assay type: functional
[5] = biological target: T2, Methionyl-tRNA synthetase, putative (Trypanosoma brucei brucei, UniProt Q38C91); assay type: functional, Trypanosoma brucei brucei strain 927/4 GUTat10.1
T2 sequence (Q38C91 whole entry): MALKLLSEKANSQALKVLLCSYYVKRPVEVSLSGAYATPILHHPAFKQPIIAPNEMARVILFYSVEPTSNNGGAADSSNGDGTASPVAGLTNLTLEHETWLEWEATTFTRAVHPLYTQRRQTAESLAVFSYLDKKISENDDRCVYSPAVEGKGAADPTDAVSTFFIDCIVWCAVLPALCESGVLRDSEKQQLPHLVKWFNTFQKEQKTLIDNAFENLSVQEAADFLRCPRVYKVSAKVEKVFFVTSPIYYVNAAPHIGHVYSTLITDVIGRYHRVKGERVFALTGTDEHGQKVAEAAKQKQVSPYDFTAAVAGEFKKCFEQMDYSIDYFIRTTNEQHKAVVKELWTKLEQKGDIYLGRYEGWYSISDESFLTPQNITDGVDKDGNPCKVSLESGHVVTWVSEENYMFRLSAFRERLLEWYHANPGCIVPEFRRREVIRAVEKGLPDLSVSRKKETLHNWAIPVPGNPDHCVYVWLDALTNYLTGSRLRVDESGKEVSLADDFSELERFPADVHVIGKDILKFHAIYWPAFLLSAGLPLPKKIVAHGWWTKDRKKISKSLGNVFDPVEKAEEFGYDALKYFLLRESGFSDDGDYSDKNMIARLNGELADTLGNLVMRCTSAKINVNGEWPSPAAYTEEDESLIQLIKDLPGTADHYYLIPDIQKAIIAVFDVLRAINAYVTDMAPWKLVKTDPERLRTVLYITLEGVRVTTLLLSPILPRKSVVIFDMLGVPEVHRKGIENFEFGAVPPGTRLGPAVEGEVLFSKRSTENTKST

[6] = biological target: T2, Methionyl-tRNA synthetase, putative; assay type: functional, Trypanosoma brucei brucei strain 927/4 GUTat10.1; remark: listed apart in the source
[7] = Luminescence Cell-Based Dose Retest to Confirm Inhibitors of Cancer Stem Cells. [Related pubchem assays (depositor defined):AID2717, AID2721]; assay type: functional; settings: Homo sapiens
[8] = reduced cellular PGC1a acetyl-lysine signal – cell-based, cherry-picked samples, dose response (AID 720514); assay type: functional;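 note: potency may reflect raised or lowered acetylation signal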
[9] = OVCAR-3 cell viability loss – plate reader, dry powder samples, PAX8 inhibitor project, dose response (AID 743044); assay type: functional, cell-based
[10] = viability loss in Vero cells – cytotoxicity control for Vif-APOBEC3G degradation inhibitor project, dose response (AID 1117358); assay type: functional; settings: Vero
[11] = growth inhibition of PfATP4-mutant resistant parasites – NITD609-resistant line, SYBR Green, dry powder, dose response (AID 1159571); assay type: functional, cell-based;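 note: parasites synchronized at ring stage by sorbitol before testing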
[12] = P. falciparum Dd2 growth inhibitors, dose response, SYBR Green, cherry-picked samples (AID 1159567); assay type: functional, cell-based
[13] = growth inhibition of yeast DHODH-expressing 3D7 parasites – SYBR Green, dry powder samples, dose response (AID 1159570); assay type: functional, cell-based;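 note: parasite growth measured after 72 hours of compound exposure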
[14] = Dd2 malaria parasite growth inhibition potency – SYBR Green, dry powder samples, dose response (AID 1159566); assay type: functional, cell-based;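 note: potency for growth inhibition with lower SYBR green DNA signal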
[15] = toxicity to human HepG2 hepatoma cells – cell-based, plate reader, dry powder samples, cytotoxicity control, dose response (AID 1159569); assay type: functional;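 note: inhibitor potency with signal falling toward the positive control level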
[16] = biological target: Major prion protein (Homo sapiens, UniProt P04156); assay type: functional, cell-based
[17] = cells
[18] = biological target: T3, Galanin receptor type 3 (Homo sapiens, UniProt O60755); experiment: Fluorescence-based cell-based primary high throughput dose response assay to identify antagonists of the Galanin Receptor 3 (GalR3).; assay type: functional
T3 sequence (O60755 whole entry): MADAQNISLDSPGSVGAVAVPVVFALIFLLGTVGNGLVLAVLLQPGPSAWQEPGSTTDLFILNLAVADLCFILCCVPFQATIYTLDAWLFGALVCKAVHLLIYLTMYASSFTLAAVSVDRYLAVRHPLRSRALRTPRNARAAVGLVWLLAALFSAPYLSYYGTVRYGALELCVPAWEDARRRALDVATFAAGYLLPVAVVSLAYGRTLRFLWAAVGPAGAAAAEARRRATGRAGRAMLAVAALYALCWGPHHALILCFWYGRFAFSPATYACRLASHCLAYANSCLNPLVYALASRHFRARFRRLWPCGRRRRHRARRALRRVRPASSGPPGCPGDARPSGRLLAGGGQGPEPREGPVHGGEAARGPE

[19] = biological target: T4, COUP transcription factor 2 (Homo sapiens, UniProt P24468); experiment: Luminescence-based cell-based high throughput dose response assay to identify inhibitors of COUP-TFII (NR2F2).; assay type: functional;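 note: HEK293 cells transiently cotransfected with COUP-TFII expression vector and reporter; luciferase reporter luminescence driven by COUP-TFII from the pX2-168 reporter plasmid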
T4 sequence (P24468 whole entry): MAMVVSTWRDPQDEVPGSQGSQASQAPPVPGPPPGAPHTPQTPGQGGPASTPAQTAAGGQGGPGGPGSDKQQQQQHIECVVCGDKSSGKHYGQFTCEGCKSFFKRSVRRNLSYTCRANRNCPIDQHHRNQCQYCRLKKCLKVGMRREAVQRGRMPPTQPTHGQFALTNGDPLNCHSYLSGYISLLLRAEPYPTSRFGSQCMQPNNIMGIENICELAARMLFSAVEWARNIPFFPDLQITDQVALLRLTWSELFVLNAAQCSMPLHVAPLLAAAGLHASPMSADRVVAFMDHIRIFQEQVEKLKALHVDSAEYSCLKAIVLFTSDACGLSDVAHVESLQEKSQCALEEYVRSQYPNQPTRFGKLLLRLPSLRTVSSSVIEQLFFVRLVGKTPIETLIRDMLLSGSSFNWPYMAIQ

[20] = cells; assay type: functional, cell-based; settings: HEK-CNG
[21] = biological target: Large T antigen (Simian virus 40, UniProt P03070); assay type: functional, Betapolyomavirus macacae;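 note: Confirmatory-stage PubChem screen for compounds that inhibit SV40 T antigen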
[22] = biological target: T5, fMet-Leu-Phe receptor (Homo sapiens, UniProt P21462); experiment: formyl peptide receptor binders – dose response (AID 519); assay type: functional
T5 sequence (P21462 whole entry): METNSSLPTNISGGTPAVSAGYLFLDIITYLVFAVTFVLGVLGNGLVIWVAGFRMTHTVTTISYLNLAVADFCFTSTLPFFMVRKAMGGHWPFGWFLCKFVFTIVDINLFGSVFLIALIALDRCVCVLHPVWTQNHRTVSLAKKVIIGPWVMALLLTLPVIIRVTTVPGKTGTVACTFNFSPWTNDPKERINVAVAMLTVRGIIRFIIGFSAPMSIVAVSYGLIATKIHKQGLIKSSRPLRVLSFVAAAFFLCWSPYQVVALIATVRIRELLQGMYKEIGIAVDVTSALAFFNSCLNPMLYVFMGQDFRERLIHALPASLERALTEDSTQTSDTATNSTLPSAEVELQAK

[23] = biological target: Cytochrome P450 3A4 (Homo sapiens, UniProt P08684);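 note: CYP3A4 tested as one member of a cytochrome P450 panel screen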
[24] = biological target: Prothrombin (Homo sapiens, UniProt P00734); experiment: Thrombin 1536 HTS Dose Response Confirmation. [Related pubchem assays: 1046 (Thrombin 1536 HTS; hits were confirmed in this assay)]; assay type: functional
[25] = tested on: INS1; experiment: INS-1E survival protection against cytokine death – cell-based, luminescence, retest, dose response (AID 449756); assay type: functional; settings: Rattus norvegicus;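 note: cell death triggered by IL-1 beta plus TNF-alpha plus IFN-gamma mixture; protective hits raise ATP signal compared with cytokine alone wells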
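Throughout, for EC50: target is galanin receptor GalR3 read with a cAMP biosensor in HEK293 cells.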

C[C@H](CO)N1C[C@H](C)[C@H](CN(C)Cc2ccc(C(F)(F)F)cc2)Oc2ccc(NS(=O)(=O)c3ccc(F)cc3)cc2CC1=O
AC50 [1]: 52.5 µM (active)
AC50 [2]: 11.4 µM (active)

COC(=O)COc1ccc(Cl)cc1C1Nc2ccccc2C(=O)N1c1ccc(OC)cc1 (stereo not given)
AC50 [3]: > 100 µM (inactive)

Cc1cccc(NS(=O)(=O)c2c(C)[nH]c(C)c2C(=O)N2CCCC2)c1
IC50 [4]: 83.3 µM (inactive)
IC50 [5]: 35.4 µM (inactive)
IC50 [6]: 11.8 µM (inactive)

O=C(Nc1ccc(N2CCN(Cc3ccccc3F)CC2)cc1)c1ccc([N+](=O)[O-])o1
AC50 [7]: 1.29 µM (active)
AC50 [8]: 1.58 µM (active)

C[C@@H]1CCCCO[C@@H](CN(C)C(=O)Nc2cccc3ccccc23)[C@H](C)CN([C@H](C)CO)C(=O)c2cc(NS(=O)(=O)c3ccc(Cl)cc3)ccc2O1
AC50 [9]: 36.6 µM (active)
AC50 [1]: 32.4 µM (active)
AC50 [2]: 5.29 µM (active)

CSCC[C@@H](Nc1nc(-c2ccccc2)nc2c1oc1ccccc12)C(=O)O
CC50 [10]: > 40 µM (active)

Cc1cccc(OCC(=O)N/N=C\c2cn(C)c3ccccc23)c1
AC50 [3]: 14.6 µM (active)

C[C@H](CO)N1C[C@H](C)[C@@H](CN(C)Cc2ccc(Oc3ccccc3)cc2)OCc2ccccc2-c2c(n(C)c3ccccc23)C1=O
AC50 [11]: 2.82 µM (active)
AC50 [12]: 2.58 µM (active)
AC50 [13]: 3.28 µM (active)
AC50 [14]: 2.58 µM (active)
AC50 [2]: 17.1 µM (active)
AC50 [15]: 20.3 µM (active)

COC(=O)CSc1ccnc2cc(Cl)ccc12
IC50 [16]: 5.16 µM (active)
IC50 [17]: > 138 µM (inactive)

CC(=O)c1ccc(N2CCN(C(S)=Nc3ccc(Oc4ccccc4)cc3)CC2)cc1
IC50 [18]: 1.23 µM (active)
IC50 [19]: 8.27 µM (active)
EC50 [20]: > 29.9 µM (inactive)

CCOc1cc(N2CCOCC2)c(OCC)cc1NS(=O)(=O)c1ccc(Cl)s1
IC50 [21]: 61.4 µM (active)
CC50 [10]: > 40 µM (active)

CCC(NC(=O)Nc1cc(OC)c(OC)c(OC)c1)(C(F)(F)F)C(F)(F)F
Ki [22]: > 66.7 µM (inactive)
AC50 [23]: 15.8 µM (inconclusive)

NC(=O)CSc1nc(-c2ccccc2)nc2ccccc12
IC50 [16]: 6.23 µM (active)
IC50 [17]: > 138 µM (inactive)

ClC1(Cl)CC1CSc1nc[nH]n1 (stereo not given)
IC50 [24]: > 50 µM (not active)

O=C(NCCc1cn2ccccc2n1)c1cc(COc2ccc3ncccc3c2)on1
IC50 [19]: 8.53 µM (active)
AC50 [25]: 6 µM (active)

C=CS(=O)(=O)N(Cc1ccccc1Br)[C@H](CO)Cc1ccccc1
AC50 [8]: 1.05 µM (active)

COc1ccc(-c2ccccc2[C@H]2[C@@H](C#N)N(C(=O)NC3CCCC3)[C@H]2CO)cc1
AC50 [11]: 1.72 µM (active)
AC50 [12]: 1.9 µM (active)
AC50 [13]: 1.21 µM (active)
AC50 [14]: 1.27 µM (active)
AC50 [15]: 65.8 µM (active)

CCOc1ccc(NC(=O)CCSc2ccc3ccccc3n2)cc1
IC50 [16]: 9.01 µM (active)
IC50 [17]: > 138 µM (inactive)

OC(c1cc(F)cc(Cl)c1)c1nc(-c2ccc3ccccc3c2)c[nH]1 (stereo not given)
IC50 [4]: 83.3 µM (inactive)
IC50 [5]: 1.46 µM (active)
IC50 [6]: 2.45 µM (active)

CCC(=O)N=C(Nc1cccc(OC)c1)Nc1nc(C)cc(C)n1
IC50 [24]: 0.268 µM (active)
